Non-standard residues stand in square brackets, D forms with d. Residues, ends and D or L forms follow the SMILES beside them. Nle = CCCC[C@H](N)C(=O)O
Key:
Assay type in all cases: cell-based, mouse
[1] = tested on: NIH3T3 cells overexpressing cystatin E; test: MTT cell viability, cystatin E overexpressing cells vs parental line; conditions: cystatin E high-expressing cells / parental cell line, 3 to 4 days
Description: (§1) With regard to the function-known genes, the genes shown in the left column of Table 2 were used. With regard to the drugs, those shown in Table 1 were dissolved in DMSO to an extent of 100-fold of the maximum concentration for the search of the drugs and used. With regard to the cells, incubated NIH3T3 or ras-NIH3T3 cells were used.
(§2) Full-length cDNA of each function-known genes was incorporated into an expression vector (pRc-CMV, etc.) and transfected into NIH3T3 cells by a common method. Transformed cells were isolated using the resistance to G-418 as an index and the expression of the transfected gene in each cell was investigated by Western blotting method to select a highly expressing line.
(§3) Cell viabilities were measured according to the following procedures.
(§4) 1) From the 2nd to the 11th rows of a 96-well plate were filled with DMEM (50 μl). The 12th row was filled with 100 μl of DMEM.
(§5) 2) The 1st row was filled with 98 μl of DMEM.
(§6) 3) Drugs (2 μl each) were added into the 1st row.
(§7) 4) Continuous double-dilution was conducted from the 1st to the 9th rows. Fifty μl were taken out from the 9th row and discarded. The plate was preserved in a CO2 incubator.
(§8) 5) Cells (each high-expressing cells and the parental cell line) were detached from the medium using a trypsin solution, suspended in 10% CS-DMEM and transferred to a test tube and cell numbers (cell/ml) were counted.
(§9) 6) The cells were diluted to a concentration of 1×10^5 cells/ml, and 50 μl of the cell suspension were added to the 1st to the 11th rows of the plate followed by gently stirring.
(§10) 7) The plate was transferred to the CO2 incubator and incubated for 3 to 4 days.
(§11) 8) MTT (5 mg/ml in PBS) (10 μl) was added to the 1st to the 12th rows of the plate and incubated in the CO2 incubator at 37° C. for 4 hours.
(§12) 9) A reaction stop solution (0.04N HCl in isopropanol) (150 μl) was added followed by mixing well and being allowed to stand at room temperature for about 2 hours.
(§13) 10) Coloration of formazan which was a metabolite of the MTT dye was measured using a microplate reader. The measurement wavelength was 574 nm and the reference wavelength was 655 nm. The 10th and the 11th rows of the plate were 100% controls and the 12th row was a 0% control.
(§14) As an index for the sensitivity of highly gene-expressing cells and the parental cell line to various drugs, each of the IC40 values thereof was specified and ratios of the IC40 values were calculated. FIG. 2 and FIG. 3 are the examples where ratios of IC40 values were calculated from a curve showing the dependency on the concentration of the chemical versus the viability. After that, logarithmic values of ratios of IC40 values were calculated from each gene.

[2] = tested on: NIH3T3 cells overexpressing Ki-ras; test: MTT cell viability, Ki-ras overexpressing cells vs parental line; conditions: Ki-ras high-expressing cells / parental cell line, 3 to 4 days
Description: as §1, §2, §3, §4, §5, §6, §7, §8, §9, §10, §11, §12, §13, §14

[3] = tested on: NIH3T3 cells overexpressing HNF3b; test: MTT cell viability, HNF3b overexpressing cells vs parental line; conditions: HNF3b high-expressing cells / parental cell line, 3 to 4 days
Description: as §1, §2, §3, §4, §5, §6, §7, §8, §9, §10, §11, §12, §13
(§15) As an index for the sensitivity of highly gene-expressing cells and the parental cell line to various drugs, each of the IC40 values thereof was specified and ratios of the IC40 values were calculated. […] After that, logarithmic values of ratios of IC40 values were calculated from each gene.

[4] = tested on: NIH3T3 cells overexpressing caspase-3; test: MTT cell viability, caspase-3 overexpressing cells vs parental line; conditions: caspase-3 high-expressing cells / parental cell line, 3 to 4 days
Description: as §1, §2, §3, §4, §5, §6, §7, §8, §9, §10, §11, §12, §13, §15

[5] = tested on: NIH3T3 cells overexpressing m-calpain; test: MTT cell viability, m-calpain overexpressing cells vs parental line; conditions: m-calpain high-expressing cells / parental cell line, 3 to 4 days
Description: as §1, §2, §3, §4, §5, §6, §7, §8, §9, §10, §11, §12, §13, §15

[6] = tested on: NIH3T3 cells overexpressing Ha-ras; test: MTT cell viability, drug sensitivity of Ha-ras overexpressing cells vs parental line; conditions: Ha-ras high-expressing cells / parental cell line, 3 to 4 days
Description: as §1, §2, §3, §4, §5, §6, §7, §8, §9, §10, §11, §12, §13, §15

[7] = tested on: NIH3T3 cells overexpressing HSP4O; test: MTT cell viability, HSP4O overexpressing cells vs parental line; conditions: HSP4O high-expressing cells / parental cell line, 3 to 4 days
Description: as §1, §2, §3, §4, §5, §6, §7, §8, §9, §10, §11, §12, §13, §14

[8] = tested on: NIH3T3 cells overexpressing N-ras; test: MTT cell viability, N-ras overexpressing cells vs parental line; conditions: N-ras high-expressing cells / parental cell line, 3 to 4 days
Description: as §1, §2, §3, §4, §5, §6, §7, §8, §9, §10, §11, §12, §13, §14

[9] = tested on: NIH3T3 cells overexpressing calpastatin; test: MTT cell viability, calpastatin overexpressing cells vs parental line; conditions: calpastatin high-expressing cells / parental cell line, 3 to 4 days
Description: as §1, §2, §3, §4, §5, §6, §7, §8, §9, §10, §11, §12, §13, §14

[10] = tested on: NIH3T3 cells overexpressing PDGF-R-Del; test: MTT cell viability, PDGF-R-Del overexpressing cells vs parental line; conditions: PDGF-R-Del high-expressing cells / parental cell line, 3 to 4 days
Description: as §1, §2, §3, §4, §5, §6, §7, §8, §9, §10, §11, §12, §13, §14

[11] = tested on: NIH3T3 cells overexpressing CBP8; test: MTT cell viability, CBP8 overexpressing cells vs parental line; conditions: CBP8 high-expressing cells / parental cell line, 3 to 4 days
Description: as §1, §2, §3, §4, §5, §6, §7, §8, §9, §10, §11, §12, §13, §14

[12] = tested on: NIH3T3 cells overexpressing CP-antisense; test: MTT cell viability, CP-antisense cells vs parental line; conditions: 3 to 4 days
Description: as §1, §2, §3, §4, §5, §6, §7, §8, §9, §10, §11, §12, §13, §14

[13] = tested on: NIH3T3 cells overexpressing DAN; test: MTT cell viability, DAN overexpressing cells vs parental line; conditions: DAN high-expressing cells / parental cell line, 3 to 4 days
Description: as §1, §2, §3, §4, §5, §6, §7, §8, §9, §10, §11, §12, §13, §14

[14] = tested on: NIH3T3 cells overexpressing PKCalpha-KN; test: MTT cell viability, PKCalpha-KN overexpressing cells vs parental line; conditions: 3 to 4 days
Description: as §1, §2, §3, §4, §5, §6, §7, §8, §9, §10, §11, §12, §13, §15

[15] = tested on: NIH3T3 cells, TPA (PKC downreg); test: MTT cell viability, TPA (PKC downreg) cells vs parental line; conditions: 3 to 4 days
Description: as §1, §2, §3, §4, §5, §6, §7, §8, §9, §10, §11, §12, §13, §14

[16] = tested on: NIH3T3 cells overexpressing p38-DN; test: MTT cell viability, p38-DN overexpressing cells vs parental line; conditions: p38-DN high-expressing cells / parental cell line, 3 to 4 days
Description: as §1, §2, §3, §4, §5, §6, §7, §8, §9, §10, §11, §12, §13, §15

[17] = tested on: NIH3T3 cells overexpressing HNF1; test: MTT cell viability, HNF1 overexpressing cells vs parental line; conditions: HNF1 high-expressing cells / parental cell line, 3 to 4 days
Description: as §1, §2, §3, §4, §5, §6, §7, §8, §9, §10, §11, §12, §13, §15

[18] = tested on: NIH3T3 cells overexpressing JNK-DN; test: MTT cell viability, JNK-DN overexpressing cells vs parental line; conditions: JNK-DN high-expressing cells / parental cell line, 3 to 4 days
Description: as §1, §2, §3, §4, §5, §6, §7, §8, §9, §10, §11, §12, §13, §14

[19] = tested on: NIH3T3 cells overexpressing p16/INK4A; test: MTT cell viability, p16/INK4A overexpressing cells vs parental line; conditions: p16/INK4A high-expressing cells / parental cell line, 3 to 4 days
Description: as §1, §2, §3, §4, §5, §6, §7, §8, §9, §10, §11, §12, §13, §14

[20] = tested on: NIH3T3 cells overexpressing STAT1; test: MTT cell viability, STAT1 overexpressing cells vs parental line; conditions: STAT1 high-expressing cells / parental cell line, 3 to 4 days
Description: as §1, §2, §3, §4, §5, §6, §7, §8, §9, §10, §11, §12, §13, §15

[21] = PKCalpha-KN (first of two lines) high-expressing cells / parental cell line
[22] = PKCalpha-KN (second of two lines) high-expressing cells / parental cell line

| Compound | logarithmic value of ratio of IC40 values [1] | logarithmic value of ratio of IC40 values [2] | logarithmic value of ratio of IC40 values [3] | logarithmic value of ratio of IC40 values [4] | logarithmic value of ratio of IC40 values [5] | logarithmic value of ratio of IC40 values [6] | logarithmic value of ratio of IC40 values [7] | logarithmic value of ratio of IC40 values [8] | logarithmic value of ratio of IC40 values [9] | logarithmic value of ratio of IC40 values [10] | logarithmic value of ratio of IC40 values [11] | logarithmic value of ratio of IC40 values [12] | logarithmic value of ratio of IC40 values [13] | logarithmic value of ratio of IC40 values [14, 21] | logarithmic value of ratio of IC40 values [14, 22] | logarithmic value of ratio of IC40 values [15] | logarithmic value of ratio of IC40 values [16] | logarithmic value of ratio of IC40 values [17] | logarithmic value of ratio of IC40 values [18] | logarithmic value of ratio of IC40 values [19] | further results |
| --- | --- | --- | --- | --- | --- | --- | --- | --- | --- | --- | --- | --- | --- | --- | --- | --- | --- | --- | --- | --- | --- |
| CO[C@H]1[C@@H](OC)C[C@H](C)[C@@H](OC)C2=CC(=O)C=C(NC(=O)/C(C)=C/C=C\[C@H](OC)[C@@H](OC(N)=O)/C(C)=C/[C@@H]1C)C2=O [HMA, herbimycin A] | 0.00 | −0.14 | −0.18 | 0.08 | 0.00 | −0.35 | 0.00 | 0.43 | −0.14 | 0.00 | 0.09 | −0.10 | −0.05 | 0.09 | −0.10 | −0.07 | −0.05 | 0.161 | −0.14 | 0.41 | logarithmic value of ratio of IC40 values [20]: −0.05 |
| C=C1[C@@H](O)[C@@H]2O[C@]3(CC[C@H](/C=C/[C@@H](C)[C@@H]4CC(C)=C[C@@]5(O[C@H](C[C@@](C)(O)C(=O)O)CC[C@H]5O)O4)O3)CC[C@H]2O[C@@H]1[C@@H](O)C[C@H](C)[C@H]1O[C@@]2(CCCCO2)CC[C@H]1C [OA, okadaic acid] | −0.52 | 0.04 | 0.08 | 0.00 | −0.08 | 0.11 | −0.02 | 0.00 | −0.04 | 0.21 | 0.12 | 0.13 | 0.04 | 0.09 | 0.00 | 0.12 | 0.12 | 0 | −0.07 | 0.06 | logarithmic value of ratio of IC40 values [20]: 0.14 |
| sodium vanadate | 0.20 | −0.30 | 0.22 | 0.14 | −0.10 | −0.33 | −0.03 | −0.09 | 0.00 | 0.00 | 0.03 | 0.04 | 0.30 | 0.23 | 0.08 | −0.03 | −0.04 | 0.046 | −0.17 | 0.11 | logarithmic value of ratio of IC40 values [20]: 0.00 |
| CCCC[C@@H](C=O)NC(=O)[C@H](CC(C)C)NC(=O)[C@H](CC(C)C)NC(C)=O [ALLN] (Ac-Leu-Leu-[Nle]-aldehyde) | 0.19 | 0.11 | 0.28 | −0.09 | 0.00 | 0.15 | 0.18 | 0.17 | 0.10 | 0.10 | 0.11 | 0.00 | 0.00 | 0.11 | −0.01 | −0.09 | 0.04 | 0.16 | −0.24 | 0.09 | logarithmic value of ratio of IC40 values [20]: 0.17 |
| C[C@@H]1O[C@@H](O[C@H]2C[C@@H](O)[C@]3(CO)[C@H]4[C@H](O)C[C@]5(C)[C@@H](C6=CC(=O)OC6)CC[C@]5(O)[C@@H]4CC[C@]3(O)C2)[C@H](O)[C@H](O)[C@H]1O [Ouabain, ouabain] | 0.49 | 0.18 | −0.23 | 0.65 | 0.05 | 0.32 | 0.00 | 0.56 | −0.3 | 0.19 | 0.58 | 0.28 | 0.74 | 0.00 | 0.06 | −0.08 | 0.41 | 0.103 | −0.08 | 0.63 | logarithmic value of ratio of IC40 values [20]: 0.04 |

— patent US20040086901A1, “Database for analyzing gene function and method of analyzing gene function by dspa” (priority 2000, published 2004)
